Values quoted from earlier work as cited in US9062031B2, “Method of preparing polymorphic pure form A of bazedoxifene acetate” (SANDOZ AG, priority 2010, dated 2015).

Key:
[1] = solvent or solvent mixture, for example ethylacetate and ethanol
[2] = aqueous and organic solvent systems

Q: Which “Conversion to form B upon contact with solvent” value [1] does the source give for `Cc1c(-c2ccc(O)cc2)n(Cc2ccc(OCCN3CCCCCC3)cc2)c2ccc(O)cc12` [Bazedoxifene x acetate form A, 1-[[4-[2-(Hexahydro-1H-azepin-1-Dethoxy]phenyl]methyl]-2-(4-hydroxyphenyl)-3-methyl-1H-indol-5-ol monoacetate] here?
A: Its value is “can easily convert to form B”.

Q: And the “Solubility compared with form B” value [2]?
A: Its value is “higher solubility than form B”.
